# Values quoted from earlier work in patent JP2007126392A, “タンパク質のリフォールディング剤” (Sanyo Chemical Industries Ltd, priority 2005, dated 2007).
# Conditions: first acid dissociation constant (pKa1) where several protons dissociate
structure (smiles),measurement,value
O[Si](O)(O)O [ケイ酸],pKa,9.86
